Data reported in article PMC13308190, “Endothelial progenitor cell susceptibility to DNA damaging and DDR-modulating compounds determines endothelial differentiation accuracy” (Stem Cell Research & Therapy, 2026).

Tests used:
EC d4 [1] = assay: Alkaline comet assay; conditions: EC d4 48 h
EC d6 [2] = assay: Nuclear γH2AX / 53BP1 foci (DSB); conditions: EC d6 24 h, equitoxic concentrations
EC d4 [3] = assay: Mitochondrial membrane potential (TMRM-MitoTracker Green); format: cell-based, mouse; conditions: EC d4 treated 48 h, analysed in EC d6; Dox 0.05 µM
mESC = assay: Alkaline comet assay; conditions: mESC 24 h
EC d6 [4] = assay: Alkaline comet assay; conditions: EC d6 24 h
[5] = test system: primary murine cardiac endothelial cells; assay: RT-qPCR mRNA expression; format: cell-based, mouse
Procedure: Total RNA was purified using the RNeasy Mini Kit (Qiagen, Hilden, Germany). Reverse transcriptase (RT) reaction was performed with the HighCapacity cDNA Reverse Transcription Kit (Applied Biosystems, Darmstadt, Germany) using 900–2000 ng of RNA. Quantitative RT-qPCR analysis was performed using following conditions: (1) 95 °C–10 min; (2) 45 amplification cycles with 95 °C–15 s, 55 °C–15 s, and 72 °C–17 s; (3) 95 °C–1 min, 55 °C–1 min, 65 °C–5 s. If not stated otherwise, analyses were performed in technical triplicates using pooled samples from two independent experiments (each performed with biological duplicates) by use of a CFX96 cycler (BioRad) and the SensiMix SYBR Kit (Bioline, London, UK). The primers used for mRNA expression analyses are listed in Supplementary Table 1. To ensure the specificity of the amplification product, melting curves were recorded at the end of the run. mRNA expression levels were normalized to β-Actin and Gapdh. Relative mRNA expression in mESC or corresponding untreated controls was set to 1.0. Only changes in gene expression of ≤ 0.5- and ≥ 2-fold were considered as biologically relevant. Fold-changes in gene expression are summarized in Supplementary Table 2.

## COc1cccc2c1C(=O)c1c(O)c3c(c(O)c1C2=O)C[C@@](O)(C(=O)CO)C[C@@H]3O[C@H]1C[C@H](N)[C@H](O)[C@H](C)O1 [Dox, doxorubicin]
EC d4 [1]
  steady-state level of SSB (alkaline comet assay): no or only a minor increase
EC d6 [2]
  DSB formation (γH2AX / 53BP1 foci): significant increase
EC d4 [3]
  mitochondrial membrane potential: strongest drop in mitochondrial membrane potential
mESC
  steady-state level of SSB (alkaline comet assay): significant increase
EC d6 [4]
  steady-state level of SSB (alkaline comet assay): no or only a minor increase
[5]; 1 µM, 24 h, Fig 7E
  Ccn1a mRNA: 0.52 Fold of untreated control
  Ccnd2 mRNA: 2.92 Fold of untreated control
  Cdkn1a mRNA: 12.45 Fold of untreated control
  Cdkn2a mRNA: 2.56 Fold of untreated control
  Cxc1 mRNA: 10.16 Fold of untreated control
  E2f1 mRNA: 0.54 Fold of untreated control
  Glb1 mRNA: 2.10 Fold of untreated control
  Il6 mRNA: 16.90 Fold of untreated control
  Il8 mRNA: 2.54 Fold of untreated control
  Mmp3 mRNA: 1.42 Fold of untreated control
  Mybl2 mRNA: 0.053 Fold of untreated control
  Tp53 mRNA: 1.66 Fold of untreated control
[5]; Dox 24 h
  upregulation of Il6, Cxc1 and Cdkn1a mRNA: about 10 fold
